These results are taken from patent US6548486B1, “Fatty acid esters of nucleoside analogs” (Norsk Hydro a.s., priority 1991, dated 2003).

Structures are written as SMILES.

Assay [1] deals with HSV 2 (3rd passage of a clinical isolate). As to the kind of experiment: Plaque method: tissue culture of HSV 2 in vero cells. The format is cell-based. Conditions: Ara T esters at 3.9 μmol/l, FIG. 2.
The test system of assay [2] is HSV 2 strain relatively resistent to ACV. In words: Plaque method with a HSV 2 strain relatively resistent to ACV. In kind it is cell-based. Conditions: 0.9 μmol/l versus 2.2 μmol/l, FIG. 1B. Here is the method: A virus preparation of HSV 2 (3rd passage of a clinical isolate) is diluted to 3×10^3 pfu/well, and thereafter inocculated on cells and incubated for 1 hour in a tissue culture of vero cells. At that time the virus is incorporated into the cells.
These cells are then cultivated for 24 hours with an anti-viral agent. Thereafter they are placed under freezing conditions, which lead to the disruption of the cells and free virus appear under the melting process. Dilutions of either 1/100 or 1/10000 are prepared and added to fresh tissue cultures. Incubation for 1 hour leads to incorporation of virus in the cells. Carboxymethylcellulose (CMC) is added in order to prohibit the migration of virus between the cells through the medium. Spread of virus by cell contact is still effective in causing the formation of plaques.
One plaque will represent one infectious virus. Thus the counting of plaques gives a precise quantitation of the number of infectious virus.
In a test done with a HSV 2 strain relatively resistent to ACV, the test compounds, ACV, ACV-oleate and ACV-elaidate, were added at 0.9 μmol/l or 2.2 μmol/l.

In assay [3] the test system is Herpes virus 2. As to the kind of experiment: In vivo reduced mortality, Herpes Simplex Virus 2 infected mice. The arrangement: species or system female NMRI mice. An excerpt:
The in vivo experiments were done using 3-4 weeks old female NMRI mice. This strain of mice is sensitive to the human herpes virus, up to an age of about 6 weeks, where after they become relatively resistant. Mice below this critical age were used, having a weight of 13-17 grams.
Herpes virus 2 which were third passage isolates were inocculated on the left ear lobe by a standarized procedure. […] Thus HSV 2 is especially suitable as a system for evaluation of the therapeutic efficiency by counting the number of cases of encephalitis.
The animals received approximately 12 mg/kg body weight/day through the drinking water. The compounds were added to the drinking water formulated as micelles with deoxycholate.
Both the control group and the groups receiving the test compounds included 10 animals in each group. The test compounds were ACV-elaidate and ACV in comparison with the control. Treatment was started on day 3 from inocculation. At that time the infection is well established in the central nerve system.

The term inhibition denotes the share of the control response that was lost under treatment. A high value points to strong suppression.

`CCCCCCCC/C=C\CCCCCCCC(=O)OC[C@H]1O[C@@H](n2cc(C)c(=O)[nH]c2=O)[C@@H](O)[C@@H]1O` (relative stereo) [Ara T oleate, 5′-O-(cis-9″-Octadecenoyl)-1-β-D-Arabinofuranosyl-Thymine]: the inhibition in assay [1] was found to be 100%.
In the case of `Nc1nc2c(ncn2COCCO)c(=O)[nH]1` [ACV, 9-(2-Hydroxyethoxymethyl)-Guanine, reference compound], in assay [2], the “inhibitory effect at increasing concentration” value is reported as “remains at the same level”.
`CCCCCCCC/C=C/CCCCCCCC(=O)OCCOCn1cnc2c(=O)[nH]c(N)nc21` [ACV-elaidate, 9-(2′-(trans-9″-Octadecenoyloxy)ethoxymethyl)-Guanine]: the “inhibitory effect at increasing concentration” value in assay [2] was “strongly enhanced at the higher concentration”. The survival rate in assay [3] (approximately 12 mg/kg body weight/day through the drinking water, treatment started day 3 from inocculation, FIG. 3) was determined as 40%. Moreover, the signs of encephalitis result in assay [3] (surviving animals after 21 days) was “no signs of encephalitis”.
As to `CCCCCCCC/C=C\CCCCCCCC(=O)OCCOCn1cnc2c(=O)[nH]c(N)nc21` [ACV-oleate, 9-(2′-(cis-9′-Octadecenoylcxy)ethoxymethyl)-Guanine], the “inhibitory effect at increasing concentration” value in assay [2] is “strongly enhanced at the higher concentration”.
